We go through 25 molecules from patent US20230227427A1, “IL-17A MODULATORS” (SANOFI, priority 2010, published 2023).

The assay addresses T1, human recombinant IL-17A (Homo sapiens, UniProt Q16552).
T1 construct: purchased R&D Systems 7955-IL/CF
T1 sequence (Q16552 24-155): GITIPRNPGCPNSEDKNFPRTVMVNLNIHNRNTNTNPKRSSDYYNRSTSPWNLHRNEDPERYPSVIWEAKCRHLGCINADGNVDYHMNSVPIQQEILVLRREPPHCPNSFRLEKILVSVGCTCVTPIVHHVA
Kind of assay: IL-17A AlphaLISA assay (block binding of IL-17A to its receptor IL-17RA). The note with it: compounds pre-incubated with the IL-17A for 30 min (indicated by * in Table A); read-out: AlphaLISA pIC50 (converted). In short, it runs like this:
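PBS with 0.05% Tween-20 and 0.1% BSA. IL-17A stock 7.5 nM, IL-17RA/Fc stock 5 nM; compound–cytokine pre-incubation 24 h at RT, or 30 min where marked, then 90 min with receptor. pIC50 from 4-parameter logistic AlphaLISA signal, normalised to DMSO and 6 μM reference inhibitor.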
In general terms: In Alpha technology, singlet oxygen from a donor bead excites a nearby acceptor bead.

For the molecule `Cc1nn(C)c(-c2ccc(NC(=O)[C@@H](NC(=O)c3ccnn3C)C3CCCCCC3)nc2)c1C` [Example 195, (S)—N-(1-cycloheptyl-2-oxo-2-((5-(1,3,4-trimethyl-1H-pyrazol-5-yl)pyridin-2-yl)amino)ethyl)-1-methyl-1H-pyrazole-5-carboxamide], the IC50 is 501 nM.

With `Cc1nsc(C)c1-c1ccc(NC(=O)[C@@H](NC(=O)c2ccnn2C)[C@H]2CC[C@H](C)CC2)nc1` [Example 196, N—((S)-2-((5-(3,5-dimethylisothiazol-4-yl)pyridin-2-yl)amino)-1-((1r,4S)-4-methylcyclohexyl)-2-oxoethyl)-1-methyl-1H-pyrazole-5-carboxamide], the IC50 was 251 nM.

As for `CCn1nccc1C(=O)N[C@H](C(=O)Nc1ccc(-c2c(CO)cnn2C)cn1)C1CCCCCC1` [Example 198, (S)—N-(1-cycloheptyl-2-((5-(4-(hydroxymethyl)-1-methyl-1H-pyrazol-5-yl)pyridin-2-yl)amino)-2-oxoethyl)-1-ethyl-1H-pyrazole-5-carboxamide], the IC50 is 200 nM.

For `CCn1nccc1C(=O)N[C@H](C(=O)Nc1ccc(-c2c(Cl)cnn2C)cn1)[C@H]1CC[C@H](C)CC1` [Example 199, N—((S)-2-((5-(4-chloro-1-methyl-1H-pyrazol-5-yl)pyridin-2-yl)amino)-1-((1r,4S)-4-methylcyclohexyl)-2-oxoethyl)-1-ethyl-1H-pyrazole-5-carboxamide], the IC50 is 100 nM.

Regarding `Cn1nncc1C(=O)N[C@H](C(=O)Nc1ccc(-c2c(Cl)cnn2C)cn1)[C@H]1CC[C@H](C)CC1` [Example 200, N—((S)-2-((5-(4-chloro-1-methyl-1H-pyrazol-5-yl)pyridin-2-yl)amino)-1-((1r,4S)-4-methylcyclohexyl)-2-oxoethyl)-1-methyl-1H-1,2,3-triazole-5-carboxamide], the IC50 was 398 nM.

With `CCc1nocc1C(=O)N[C@H](C(=O)Nc1ccc(-c2c(Cl)cnn2C)cn1)[C@H]1CC[C@H](C)CC1` [Example 201, N—((S)-2-((5-(4-chloro-1-methyl-1H-pyrazol-5-yl)pyridin-2-yl)amino)-1-((1r,4S)-4-methylcyclohexyl)-2-oxoethyl)-3-ethylisoxazole-4-carboxamide], the IC50 is 79.4 nM.

Consider `CCc1nocc1C(=O)N[C@H](C(=O)Nc1ccc(-c2c(CO)cnn2C)cn1)C1CCCCCC1` [Example 202, (S)—N-(1-cycloheptyl-2-((5-(4-(hydroxymethyl)-1-methyl-1H-pyrazol-5-yl)pyridin-2-yl)amino)-2-oxoethyl)-3-ethylisoxazole-4-carboxamide], for which the IC50 was 158 nM.

On to `CCc1nocc1C(=O)N[C@H](C(=O)Nc1ccc(-c2c(C)noc2C)nc1)[C@H]1CC[C@H](C)CC1` [Example 203, N—((S)-2-((6-(3,5-dimethylisoxazol-4-yl)pyridin-3-yl)amino)-1-((1r,4S)-4-methylcyclohexyl)-2-oxoethyl)-3-ethylisoxazole-4-carboxamide], for which the IC50 is 79.4 nM.

Consider `Cc1cnn(C)c1-c1ccc(NC(=O)[C@@H](NC(=O)c2ccnn2C(C)C)[C@H]2CC[C@H](C)CC2)cn1` [Example 204, N—((S)-2-((6-(1,4-dimethyl-1H-pyrazol-5-yl)pyridin-3-yl)amino)-1-((1r,4S)-4-methylcyclohexyl)-2-oxoethyl)-1-isopropyl-1H-pyrazole-5-carboxamide], for which the IC50 was 200 nM.

`CCn1nccc1C(=O)N[C@H](C(=O)Nc1ccc(-c2c(CO)cnn2C)cn1)[C@H]1CC[C@H](C)CC1` [Example 205, 1-ethyl-N—((S)-2-((5-(4-(hydroxymethyl)-1-methyl-1H-pyrazol-5-yl)pyridin-2-yl)amino)-1-((1r,4S)-4-methylcyclohexyl)-2-oxoethyl)-1H-pyrazole-5-carboxamide]: the IC50 is 251 nM.

As for `Cc1noc(C)c1-c1ccc(NC(=O)[C@@H](NC(=O)c2ccnn2C(C)C)[C@H]2CC[C@H](C)CC2)cn1` [Example 206, N—((S)-2-((6-(3,5-dimethylisoxazol-4-yl)pyridin-3-yl)amino)-1-((1r,4S)-4-methylcyclohexyl)-2-oxoethyl)-1-isopropyl-1H-pyrazole-5-carboxamide], the IC50 was 126 nM.

Regarding `Cc1n[nH]c(C)c1-c1ccc(NC(=O)[C@@H](NC(=O)c2ccnn2C)C2CCCCC2)cn1` [Example 207, (S)—N-(1-cyclohexyl-2-((6-(3,5-dimethyl-1H-pyrazol-4-yl)pyridin-3-yl)amino)-2-oxoethyl)-1-methyl-1H-pyrazole-5-carboxamide], the IC50 is 501 nM.

Regarding `CCn1nccc1C(=O)N[C@H](C(=O)Nc1ccc(-c2c(C)n[nH]c2C)nc1)C1CCCCCC1` [Example 208, (S)—N-(1-cycloheptyl-2-((6-(3,5-dimethyl-1H-pyrazol-4-yl)pyridin-3-yl)amino)-2-oxoethyl)-1-ethyl-1H-pyrazole-5-carboxamide], the IC50 was 63.1 nM.

Consider `Cc1n[nH]c(C)c1-c1ccc(NC(=O)[C@@H](NC(=O)c2cnnn2C)C2CCCCCC2)cn1` [Example 209, (S)—N-(1-cycloheptyl-2-((6-(3,5-dimethyl-1H-pyrazol-4-yl)pyridin-3-yl)amino)-2-oxoethyl)-1-methyl-1H-1,2,3-triazole-5-carboxamide], for which the IC50 is 794 nM.

As for `CCc1nocc1C(=O)N[C@H](C(=O)Nc1ccc(-c2c(C)n[nH]c2C)nc1)C1CCCCCC1` [Example 210, (S)—N-(1-cycloheptyl-2-((6-(3,5-dimethyl-1H-pyrazol-4-yl)pyridin-3-yl)amino)-2-oxoethyl)-3-ethylisoxazole-4-carboxamide], the IC50 is 63.1 nM.

`Cc1n[nH]c(C)c1-c1ccc(NC(=O)[C@@H](NC(=O)c2ccnn2C)[C@H]2CC[C@H](C)CC2)cn1` [Example 211, N—((S)-2-((6-(3,5-dimethyl-1H-pyrazol-4-yl)pyridin-3-yl)amino)-1-((1r,4S)-4-methylcyclohexyl)-2-oxoethyl)-1-methyl-1H-pyrazole-5-carboxamide]: the IC50 was 158 nM.

On to `CCn1nccc1C(=O)N[C@H](C(=O)Nc1ccc(-c2c(C)n[nH]c2C)nc1)[C@H]1CC[C@H](C)CC1` [Example 212, N—((S)-2-((6-(3,5-dimethyl-1H-pyrazol-4-yl)pyridin-3-yl)amino)-1-((1r,4S)-4-methylcyclohexyl)-2-oxoethyl)-1-ethyl-1H-pyrazole-5-carboxamide], for which the IC50 is 100 nM.

With `CCc1nocc1C(=O)N[C@H](C(=O)Nc1ccc(-c2c(C)n[nH]c2C)nc1)[C@H]1CC[C@H](C)CC1` [Example 213, N—((S)-2-((6-(3,5-dimethyl-1H-pyrazol-4-yl)pyridin-3-yl)amino)-1-((1r,4S)-4-methylcyclohexyl)-2-oxoethyl)-3-ethylisoxazole-4-carboxamide], the IC50 is 100 nM.

With `Cc1cc(=O)n(C)c(C)c1-c1ccc(NC(=O)[C@@H](NC(=O)c2ccnn2C)C2CCCCCC2)nc1` [Example 214, (S)—N-(1-cycloheptyl-2-oxo-2-((1′,2′,4′-trimethyl-6′-oxo-1′,6′-dihydro-[3,3′-bipyridin]-6-yl)amino)ethyl)-1-methyl-1H-pyrazole-5-carboxamide], the IC50 is 158 nM.

`Cc1cc(=O)n(C)c(C)c1-c1ccc(NC(=O)[C@@H](NC(=O)c2ccnn2C)[C@H]2CC[C@H](C)CC2)nc1` [Example 215, 1-methyl-N—((S)-1-((1r,4S)-4-methylcyclohexyl)-2-oxo-2-((1′,2′,4′-trimethyl-6′-oxo-1′,6′-dihydro-[3,3′-bipyridin]-6-yl)amino)ethyl)-1H-pyrazole-5-carboxamide]: the IC50 was 126 nM.

For the molecule `Cc1nn(C)c(C)c1-c1ccc(NC(=O)[C@@H](NC(=O)c2ccnn2C)C2CCCCCC2)nc1` [Example 216, (S)—N-(1-cycloheptyl-2-oxo-2-((5-(1,3,5-trimethyl-1H-pyrazol-4-yl)pyridin-2-yl)amino)ethyl)-1-methyl-1H-pyrazole-5-carboxamide], the IC50 was 501 nM.

With `Cc1nn(C)c(C)c1-c1ccc(NC(=O)[C@@H](NC(=O)c2ccnn2C)[C@H]2CC[C@H](C)CC2)nc1` [Example 217, 1-methyl-N—((S)-1-((1r,4S)-4-methylcyclohexyl)-2-oxo-2-((5-(1,3,5-trimethyl-1H-pyrazol-4-yl)pyridin-2-yl)amino)ethyl)-1H-pyrazole-5-carboxamide], the IC50 is 501 nM.

Turning to `Cc1n[nH]c(C)c1-c1ccc(NC(=O)[C@@H](NC(=O)c2ccnn2C)C2CCCCCC2)cn1` [Example 218, (S)—N-(1-cycloheptyl-2-((6-(3,5-dimethyl-1H-pyrazol-4-yl)pyridin-3-yl)amino)-2-oxoethyl)-1-methyl-1H-pyrazole-5-carboxamide], the IC50 was 158 nM.

Consider `Cn1nccc1C(=O)N[C@H](C(=O)Nc1ccc(-c2c(C(F)(F)F)cnn2C)cn1)[C@H]1CC[C@H](C)CC1` [Example 219, 1-methyl-N—((S)-2-((5-(1-methyl-4-(trifluoromethyl)-1H-pyrazol-5-yl)pyridin-2-yl)amino)-1-((1r,4S)-4-methylcyclohexyl)-2-oxoethyl)-1H-pyrazole-5-carboxamide], for which the IC50 was 126 nM.

As to `Cc1cnn(C)c1-c1ccc(NC(=O)C(NC(=O)c2ccnn2C)C2C3(CC3)CCC23CC3)nc1` (stereo not shown) [Example 220, N-(2-((5-(1,4-dimethyl-1H-pyrazol-5-yl)pyridin-2-yl)amino)-1-(dispiro[2.1.2^5.2^3]nonan-4-yl)-2-oxoethyl)-1-methyl-1H-pyrazole-5-carboxamide], the IC50 was 31.6 nM.
